Experimental data: patent publication US8980838B2, “Cyclized peptidomimetic small molecule inhibitors of the WDR5 and MLL1 interaction” (The Regents of the University of Michigan, priority 2011, dated 2015)
*1 amine or outer side, *2 acyl side, *3 side chain or, on linkers, in order; H or OH if unused. Where a SMILES comes first, the peptide text is derived from it. Bridges are numbered along the chain shown (N, C = ends). [ ]: non-standard residue; d: D form. The star is where a group is joined. dαMeLys(Me) = CN(CCCC[C@@](C)(N[*:1])C(=O)[*:2])[*:3]; dPhg(4-F) = N[C@@H](C(=O)O)c1ccc(F)cc1; dPhg = N[C@@H](C(=O)O)c1ccccc1; Isobutyryl = CC(C)C(=O)*; Abu = CC[C@H](N)C(=O)O

The compounds below were run against T1, WDR5 (Homo sapiens, UniProt P61964) (assay: fluorescence-polarization based competitive binding assay). Details: not given.
T1 construct: N-terminal His-tagged WDR5Δ23 (residues 24-334) was expressed from the pET28-MHL vector; His tag (N); made in house; host or cells: Rosetta2(DE3) pLysS cells (E. coli)
Method: Binding Assay Protein Expression and Purification for the Binding Assay
Cells were grown to OD600=0.4-0.6 in 4 L 2×TY at 30° C., induced with 0.1 mM IPTG at 16° C. for 16 hours and harvested in 20 mM HEPES pH 7.5, 500 mM KCl, 10% glycerol, 0.1 mg/ml PMSF, 0.05% NP40. Cells were lysed by addition of 0.2 mg/ml hen egg white lysozyme followed by sonication and clarification by centrifuging for 30 minutes at 15,000 rpm. The resin was washed 3 times for 10 minutes with 40 ml lysis buffer. His-WDR5Δ23 was eluted from the resin by 3×15 minute elutions with 20 mM HEPES pH 7.5, 100 mM KCl, 10% glycerol, 250 mM imidazole pH 7.5. […] Concentrated protein was aliquoted and samples were frozen on dry ice and stored at −80° C.
The IC50 value of the inhibitors were calculated using GraphPad Prism 4 software.
Competitive Binding Experiments
The binding affinities of the synthetic peptides shown in the study were measured using this competitive binding assay described earlier (31). A pre-incubated complex solution of WDR5Δ23 and the tracer in 120 μl assay buffer were added to dilutions of the test compound in 5 μl DMSO, giving final concentrations of WDR5Δ23 and the tracer of 4 nM and 0.6 nM, respectively. […] The plates were incubated with shaking at room temperature. The mP values were measured after five hours of incubation and Ki values were calculated using the equation described previously (32).
In the case of `CC[C@@H]1NC(=O)[C@H](CCCNC(=N)N)NC(=O)[C@](C)(NC(=O)C(C)C)CCCCN(C)C(=O)[C@@H](c2ccccc2)NC1=O` [Compound 29d] (Isobutyryl-[dαMeLys(Me)]R[Abu][dPhg]; lactam 1-C), the IC50 is reported as < 10 nM. `CC[C@@H]1NC(=O)[C@H](CCCNC(=N)N)NC(=O)[C@](C)(NC(=O)C(C)C)CCCCN(C)C(=O)[C@@H](c2ccc(F)cc2)NC1=O` [Compound 29e] (Isobutyryl-[dαMeLys(Me)]R[Abu][dPhg(4-F)]; lactam 1-C) was tested, and the IC50 was < 10 nM. In the case of `CC[C@@H]1NC(=O)[C@H](CCCNC(=N)N)NC(=O)[C@](C)(NC(=O)C(C)C)CCCCN(C)C(=O)[C@@H](c2ccc(Cl)cc2)NC1=O` [Compound 29f], the IC50 is reported as < 10 nM.

Same assay, conditions: FP competitive binding; WDR5Δ23 4 nM, tracer 0.6 nM, five hours incubation; Table 2 series; read-out: IC50, binding affinity to WDR5
For `CC[C@@H]1NC(=O)[C@H](CCCNC(=N)N)NC(=O)[C@](C)(NC(=O)C(C)C)CCCCCNC1=O` [Compound 19a], the IC50 was < 1000 nM. For `CC[C@@H]1NC(=O)[C@H](CCCNC(=N)N)NC(=O)[C@](C)(NC(=O)C(C)C)CCCCCCNC(=O)[C@H](c2ccccc2)NC1=O` [Compound 29c], the IC50 was < 10 nM. With `CC[C@@H]1NC(=O)[C@H](CCCNC(=N)N)NC(=O)[C@](C)(NC(=O)C(C)C)CCCCCCNC(=O)[C@@H](c2ccccc2)NC1=O` [Compound 29b] the IC50 was < 10 nM. For `CC[C@@H]1NC(=O)[C@H](CCCNC(=N)N)NC(=O)[C@](C)(NC(=O)C(C)C)CCCCCCCCNC1=O` [Compound 19c], the IC50 was < 10 nM. In the case of `CC[C@@H]1NC(=O)[C@H](CCCNC(=N)N)NC(=O)[C@](C)(NC(=O)C(C)C)CCCCCCNC1=O` [Compound 19b], the IC50 is reported as < 10 nM.

Same assay, conditions: FP competitive binding; WDR5Δ23 4 nM, tracer 0.6 nM, five hours incubation; Table 3 series; read-out: IC50, binding affinity to WDR5
With `CC[C@@H]1NC(=O)[C@H](CCCNC(=N)N)NC(=O)[C@@](C)(NC(=O)C(C)C)CCCCCCCNC1=O` [Compound 34c] the IC50 was < 1000 nM. `CC[C@@H]1NC(=O)[C@H](CCCNC(=N)N)NC(=O)[C@@](C)(NC(=O)C(C)C)CCCCCCNC(=O)[C@H](c2ccccc2)NC1=O` [Compound 36] was tested, and the IC50 was < 1000 nM. With `CC[C@@H]1NC(=O)[C@H](CCCNC(=N)N)NC(=O)[C@@](C)(NC(=O)C(C)C)CCCCCCCCNC1=O` [Compound 34d] the IC50 was < 1000 nM.

Same assay, conditions: FP competitive binding; WDR5Δ23 4 nM, tracer 0.6 nM, five hours incubation; first cyclic series (Table 1); read-out: IC50, binding affinity to WDR5
For `CCC1(CC)NC(=O)CCCCCCCNC(=O)[C@H](CCCNC(=N)N)NC1=O` [Compound 4d], the IC50 was > 1000 nM. `CCC1(CC)NC(=O)CCCCCCCN(C(C)=O)C[C@H](CCCNC(=N)N)NC1=O` [Compound 14] was tested, and the IC50 was > 100000 nM. With `CCC1(CC)NC(=O)CCCCCCCCNC(=O)[C@H](CCCNC(=N)N)NC1=O` [Compound 4e] the IC50 was > 1000 nM. `CCC1(CC)NC(=O)CCCCNC(=O)[C@H](CCCNC(=N)N)NC1=O` [Compound 4a] was tested, and the IC50 was > 100000 nM. `CCC1(CC)NC(=O)CCCCCCNC(=O)[C@H](CCCNC(=N)N)NC1=O` [Compound 4c] was tested, and the IC50 was > 100000 nM. `CCC1(CC)NC(=O)CCCCCCCNC[C@H](CCCNC(=N)N)NC1=O` [Compound 15] was tested, and the IC50 was > 100000 nM. In the case of `CCC1(CC)NC(=O)CCCCCNC(=O)[C@H](CCCNC(=N)N)NC1=O` [Compound 4b], the IC50 is reported as > 100000 nM.
